Assay [1] relates to CMV strains AD169^R and TB40/E. In words: CMV infection assay, strains AD169^R and TB40/E together. In kind it is cell-based, Human cytomegalovirus.
Assay [2] concerns MCMV Smith. In words: Herpes virus panel neutralization, MCMV. Format: cell-based, Murine cytomegalovirus. As to the method: (§1) To determine the specificity of MBX-4992, additional neutralization experiments were conducted using a panel of herpes viruses performed in the presence of MBX-4992. […] Collectively, the antiviral activity of MBX-4992 is equivalent to that of GCV indicating specific inhibition of CMV replication.

Assay [3] has as its system HHV-6B Z29. In words: Herpes virus panel neutralization, HHV-6B. In kind it is cell-based, Human herpes virus 6B. As to the method:
as §1

Assay [4] deals with AD169 and AD169^R. Nature of the assay: IE1 expression 2 days post-infection in fibroblasts. Format: cell-based, Human cytomegalovirus. The method, then:
HCMV strains AD169^R (A) and AD169 (B) infection (MOI 0.2) of NHDF cells pre-treated with 0, 5, and 20 μM MBX-4992 were assessed at 1 dpi or 2 dpi based on IE1 expression by anti-IE1 immunostain. The % infection was determined using DMSO-treated as 100% infection. The error bars represent values in triplicate. Statistical tests were performed using ordinary one-way ANOVA with multiple comparisons to DMSO treated cells as a control and a Dunnett's post-test; **, p<0.01; ****, p<0.0001. (C) Total cell lysates from AD169^R-infected (MOI 0.2) ARPE-19 cells pre-treatment with DMSO, MBX-4992 (1-20 μM) or heparin (50 μg/mL) collected at 24 hpi were subjected to Western blot analysis using a rabbit anti-IE-1 antibody (lanes 1-7) and an anti-GAPDH antibody (lanes 8-14) as a loading control. The molecular weight markers and respective proteins are indicated.
(FIG. 11A-G). […] The IC50 values were similar in diverse cell types and among the different strains further supporting that NAPA compounds are effective at inhibiting CMV infection.

In assay [5] the test system is EBV Akata. Nature of the assay: Herpes virus panel neutralization, EBV. Format: cell-based, Epstein-Barrvirus. As to the method: as §1
The subject of assay [6] is HHV-8 BCBL-1. Nature of the assay: Herpes virus panel neutralization, HHV-8. Format: cell-based, Human herpes virus 8. The method, then: as §1
In assay [7] the test system is HCMV strain AD169^R. In words: CMV infection (neutralization) assay, GFP/IE1 readout 24 hpi, AD169^R. Format: cell-based, Human cytomegalovirus. Particulars: Human betaherpesvirus 5, AD169, Fibroblast. The method, then: Fibroblasts and ARPE-19 cells (10^4) were plated in 96-well plates (Greiner, Monroe, NC). The following day the cells were pretreated for 1 hour at 37° C. with increasing concentrations of the respective novel NAPA compounds described herein or DMSO in triplicate prior to infection with the respective viruses. At 18 hours post infection (hpi) cells were stained using a rabbit anti-IE1 antibody followed by an anti-rabbit Alexa 647 and measured using a Celigo Cytometer (Parsons et al., Antiviral Res., 193:105124 (2021); Stein et al., Nat. Commun., 10:2699 (2019)). Using the DMSO treated cells as 100% infection, the percent infection of the NAPA compound-treated cells was determined. The half maximal inhibitory (IC50) values were calculated using Prism9's nonlinear fit [inhibitor]-vs-response (four parameters) analysis of these averages and extrapolation to the concentration that would produce 50% infection relative to DMSO treatment.
To further evaluate the inhibitory properties of MBXC-4302 against CMV, we utilized the AD169 CMV virus strain containing the UL131-UL128 open reading frame of the HCMV strain TR and expressing EGFP (AD169^R) (Wang D. and Shenk T., Proc. Nat. Acad. Sci., USA, 102:18153-18158 (2005)) and TB40/E infection of human fibroblasts (NHDF) and ARPE-19 epithelial cells in the presence of increasing concentration of compound (FIG. 2A-D). Infection was analyzed 24 hours post infection (hpi) by measuring GFP fluorescence encoded by AD169^R or using an anti-IE1 antibody for staining TB40/E infected cells.
NAPA variants with modified groups were evaluated for inhibition of CMV infection in fibroblasts. AD169^R infected fibroblasts were treated with NAPA compounds MBX-4992, MBXC-4325, MBXC-4330, and MBXC-4336 (0-50 μM) and analyzed for infection at 24 hpi (FIG. 6A-D). The infected cells were probed for IE1 as an indication of virus infection.

For assay [8], the system named is TR, Towne, and TB40/E strains. Nature of the assay: CMV infection assay of MBXC-4336 with further strains. In kind it is cell-based, Human cytomegalovirus. To be noted: NHDF cells, 24 hpi, IE1 (FIG. 11F-H). As to the method: HCMV strains AD169 (A), TB40/E Flag YFP (B), Towne (C and G), TR (D and F), Merlin (E), and TB40/E (H) infection of NHDF cells pre-treated with DMSO and 0, 1, 5, or 20 μM MBX-4992 or MBXC-4336, respectively, were assessed at 24 hpi based on IE1 expression by anti-IE1 immunostain. TB40/E (I) (MOI 0.25) and AD169^R (J) (MOI 0.25) infection of HTR-svNeo cells treated with DMSO and 0, 1, 5, or 20 μM MBX-4992 were assessed at 24 hpi based on IE1 expression by anti-IE1 immunostain. The % infection was determined using DMSO-treated as 100% infection. The error bars represent values in triplicate. Statistical tests were performed using ordinary one-way ANOVA with multiple comparisons to DMSO treated cells as a control and a Dunnett's post-test *, p<0.05; **, p<0.01; ****, p<0.0001.
Fibroblasts and ARPE-19 cells (10^4) were plated in 96-well plates (Greiner, Monroe, NC). […] At 18 hours post infection (hpi) cells were stained using a rabbit anti-IE1 antibody followed by an anti-rabbit Alexa 647 and measured using a Celigo Cytometer (Parsons et al., Antiviral Res., 193:105124 (2021); Stein et al., Nat. Commun., 10:2699 (2019)). Using the DMSO treated cells as 100% infection, the percent infection of the NAPA compound-treated cells was determined. […]

The results in this text go back to US20250177392A1, “BROAD SPECTRUM INHIBITORS OF CYTOMEGALOVIRUS” (MICROBIOTIX, INC., priority 2022, published 2025).

With `Cc1nc(Nc2ccc(NC(=O)c3ccco3)cc2)cc(N2CCCC2)n1` [MBX-4992], in assay [1] (HRT8svNEO trophoblasts, 24 hpi, IE1 immunostain), the infection of trophoblasts entry was “limited infection”. Also, the IC50 (in general, the concentration that gives 50% inhibition) was 1.9 to 4.8 µM in assay [1] (Human betaherpesvirus 5, AD169, read-out: IC50 values ranging); 4.5 µM in assay [2] (Murid betaherpesvirus 1); 43.7 µM in assay [3] (Human betaherpesvirus 6B); 30.9 µM in assay [5] (human gammaherpesvirus 4); 10 µM in assay [6] (Homo sapiens, BCBL1). Also, the SI was >33 in assay [2] (MCMV Smith), >2 in assay [3], >3 in assay [5] and >10 in assay [6]. The IE1 expression result in assay [4] is listed as “similarly effective at limiting IE1 expression”.
`Cc1nc(Nc2cccc(NC(=O)c3ccco3)c2)cc(N2CCCCC2)n1` [MBXC-4336] returned a 50% inhibitory concentration (IC50) in assay [7] of 2900 nM. Further, the “effectiveness against further strains” value in assay [8] is “effectiveness of MBXC-4336 was validated”.
